Data on three compounds can be found in patent US4808588A, “Heterocyclic ureas and carbonates useful as pharmaceuticals” (Beecham Group, p.l.c., priority 1986, dated 1989).

This assay concerns von Bezold-Jarisch reflex evoked by 5-HT. Description: Antagonism of the von Bezold-Jarisch reflex evoked by 5-HT in the anaesthetised rat. The class given is in vivo. The conditions noted are these: anaesthetised male rats, compound intravenous, 5-HT usually 6 μg/kg i.v., heart rate changes, read-out: ED50 (concentration required to reduce the 5-HT-evoked response to 50% of the control response). On the procedure:
Antagonism of the von Bezold-Jarisch reflex
The compounds were evaluated for antagonism of the von Bezold-Jarisch reflex evoked by 5-HT in the anaesthetised rat according to the following method:
Male rats 250-350 g, were anaesthetised with urethane (1.25 g/kg intraperitoneally) and blood pressure and heart rate recorded as described by Fozard J. R. et al., J. Cardiovasc. Pharmacol. 2, 229-245 (1980). A submaximal dose of 5-HT (usually 6 μg/kg) was given repeatedly by the intravenous route and changes in heart rate quantified. Compounds were given intravenously and the concentration required to reduce the 5-HT-evoked response to 50% of the control response (ED50) was then determined.
In the case of `COc1cscc1NC(=O)N[C@H]1C[C@H]2CC[C@@H](C1)N2C` [Compound 5, (endo)-N-(8-Methyl-8-azabicyclo[3,2,1]oct-3-yl)-N'-(4-methoxythiophen-3-yl)urea], the ED50 is 2 µg/kg.
With `COc1ccsc1NC(=O)N[C@H]1C[C@H]2CC[C@@H](C1)N2C` [Compound 3, (endo)-N-(8-Methyl-8-azabicyclo[3,2,1]oct-3-yl)-N'-(3-methoxythiophen-2-yl)urea] the figure was 1 µg/kg.
Under `COc1ncccc1NC(=O)N[C@H]1C[C@H]2CC[C@@H](C1)N2C` [Compound 1, (endo)-N-(8-Methyl-8-azabicyclo[3.2.1]oct-3-yl)-N'-(2-methoxy-pyrid-3-yl)urea] stands 7.5 µg/kg.
